The values that follow come from US20240239766A1, “3-AMINO PIPERIDYL SODIUM CHANNEL INHIBITORS” (Genentech, Inc., priority 2021, published 2024).

Where a name gives a salt, the structure may show the parent alone.

This test concerns the target hNav1.7 (Homo sapiens (Human), UniProt Q15858). Kind of test: Patch voltage clamp electrophysiology assay (EP), Syncropatch 384PE, CHO cells expressing Nav1.7. It counts as cell-based. To be noted: holding potential −50 mV; 7.5 min compound incubation; read-out: EP SP hNav1.7 EVO (IC50). An excerpt: Example 101c: Electrophysiological Assay (EP) (In Vitro Assay)
Patch voltage clamp electrophysiology allows for the direct measurement and quantification of block of voltage-gated sodium channels (NaV's), and allows the determination of the time- and voltage-dependence of block which has been interpreted as differential binding to the resting, open, and inactivated states of the sodium channel (Hille, B., Journal of General Physiology (1977), 69: 497-515).
The following voltage clamp electrophysiology studies are performed on representative compounds using cells heterologously expressing Nav1.7 or Nav1.5 channels. cDNAsfor Nav1.7 (NM_002977) and Nav1.5 (AC137587) are stably expressed in Chinese Hamstr Ovary (CHO) cells and CHL (Chinese Hamster Lung) cells respectively. Sodium currents are measured in the whole-cell configuration using Syncropatch 384PE (Nanlon Technologies, Germany). 1NPC®-384 chips with custom medium resistance and single hole mode are used. Internal solution consists of (in mM): […], 10 CsCl, 20 EGTA, and 10 Hepes (pH adjusted to 7.2); and external solution contains (in mM): 60 NMDG, 80 NaCl, 4 KCl, 1 MgCl2, 2 CaCl2), 2 D-Glucose monohydrate, 10 Hepes (pH adjusted to 7.4 with NaOH).
After system flushing, testing compounds are dissolved in external solution containing 0.1% Pluronic F-127. The chip is moved into the measuring head and the instrument primes the chip with external and internal solutions. 10 μl cells are added to the chip from a cell hotel, and a negative pressure of −50 mBar is applied to form a seal. Following treatment with seal enhancer solution and wash-off with external solution, negative pressure of −250 mbar is applied for 1 second to achieve the whole-cell configuration, followed by three washing steps in external solution. 20 μl of compounds is added to 40 μl in each well (1:3 dilution of compounds), and after mixing, 20 μl is removed so the volume is retained at 40 ul. After approximately 13 minutes recordings, 20 μl/well of 2 uM TTX, or 333 uM Tetracaine (for Nav1.5) is added to achieve full block.
For voltage protocol, an holding potential of −50 mV is applied during the whole experiment. A depolarizing step is applied to −10 mV for 10 ms, followed by a hyperpolarization step to −150 mV for 20 ms to allow channel recovery from inactivation. A second depolarizing step is applied from −150 mV to −10 mV for 10 ms, where currents are measured to derive blocking effects of compounds. Inhibition is determined based on 7.5 min of compound incubation.
For orientation: The patch-clamp technique gives a direct electrical read-out from membranes.

Chain of hNav1.7 (Q15858 other isoform, or with tags, fused parts or gaps): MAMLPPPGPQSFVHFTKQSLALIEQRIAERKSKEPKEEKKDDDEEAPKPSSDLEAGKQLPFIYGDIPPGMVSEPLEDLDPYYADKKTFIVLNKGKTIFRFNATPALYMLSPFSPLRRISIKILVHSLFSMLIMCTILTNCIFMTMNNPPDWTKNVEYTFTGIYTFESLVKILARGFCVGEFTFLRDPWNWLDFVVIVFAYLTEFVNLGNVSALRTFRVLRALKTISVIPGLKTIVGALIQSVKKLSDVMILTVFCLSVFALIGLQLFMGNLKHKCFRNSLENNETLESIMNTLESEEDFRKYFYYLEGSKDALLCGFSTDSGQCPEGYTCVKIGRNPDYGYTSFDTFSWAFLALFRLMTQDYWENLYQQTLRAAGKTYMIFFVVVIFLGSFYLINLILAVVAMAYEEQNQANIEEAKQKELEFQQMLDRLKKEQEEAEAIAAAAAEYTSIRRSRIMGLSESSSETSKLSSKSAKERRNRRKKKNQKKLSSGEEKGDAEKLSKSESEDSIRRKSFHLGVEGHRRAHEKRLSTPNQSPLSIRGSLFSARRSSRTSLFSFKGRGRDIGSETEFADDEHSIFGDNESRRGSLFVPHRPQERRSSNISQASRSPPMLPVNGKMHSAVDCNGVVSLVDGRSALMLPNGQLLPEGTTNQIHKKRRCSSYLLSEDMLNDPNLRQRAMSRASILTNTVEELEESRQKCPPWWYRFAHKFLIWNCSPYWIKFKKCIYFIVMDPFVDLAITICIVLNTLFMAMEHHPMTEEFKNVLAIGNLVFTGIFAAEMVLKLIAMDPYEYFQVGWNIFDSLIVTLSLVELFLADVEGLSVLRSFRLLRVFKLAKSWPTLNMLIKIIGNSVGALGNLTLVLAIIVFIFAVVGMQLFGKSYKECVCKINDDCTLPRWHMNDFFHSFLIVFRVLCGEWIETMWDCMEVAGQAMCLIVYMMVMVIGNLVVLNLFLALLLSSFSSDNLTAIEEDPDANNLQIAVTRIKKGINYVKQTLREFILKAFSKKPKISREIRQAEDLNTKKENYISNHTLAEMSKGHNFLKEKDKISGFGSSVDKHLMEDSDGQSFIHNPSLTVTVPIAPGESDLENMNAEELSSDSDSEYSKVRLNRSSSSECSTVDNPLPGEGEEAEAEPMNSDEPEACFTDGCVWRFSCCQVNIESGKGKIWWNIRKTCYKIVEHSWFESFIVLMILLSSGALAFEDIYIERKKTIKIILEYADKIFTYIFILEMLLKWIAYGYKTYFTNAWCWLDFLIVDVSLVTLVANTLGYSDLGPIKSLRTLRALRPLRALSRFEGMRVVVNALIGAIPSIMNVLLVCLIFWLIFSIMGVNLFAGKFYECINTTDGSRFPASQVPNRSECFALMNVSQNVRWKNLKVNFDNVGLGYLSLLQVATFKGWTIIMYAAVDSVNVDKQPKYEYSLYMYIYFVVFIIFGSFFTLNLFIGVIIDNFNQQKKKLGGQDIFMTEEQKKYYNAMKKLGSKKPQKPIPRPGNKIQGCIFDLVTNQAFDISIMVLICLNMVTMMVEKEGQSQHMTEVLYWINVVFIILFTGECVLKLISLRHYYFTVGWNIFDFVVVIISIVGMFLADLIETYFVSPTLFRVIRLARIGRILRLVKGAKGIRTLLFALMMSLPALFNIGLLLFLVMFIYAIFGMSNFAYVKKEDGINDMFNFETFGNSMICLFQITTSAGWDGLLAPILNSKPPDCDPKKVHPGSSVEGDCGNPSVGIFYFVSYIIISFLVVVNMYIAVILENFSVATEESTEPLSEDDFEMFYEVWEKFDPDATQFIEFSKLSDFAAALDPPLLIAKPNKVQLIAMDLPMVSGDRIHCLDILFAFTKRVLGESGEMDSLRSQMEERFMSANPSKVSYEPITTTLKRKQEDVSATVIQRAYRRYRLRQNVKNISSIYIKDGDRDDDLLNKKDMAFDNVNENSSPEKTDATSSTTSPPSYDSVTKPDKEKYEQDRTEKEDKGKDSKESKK

One may read the IC50 as the concentration needed to halve the response being measured. As for `CN(C)[C@]1(CCc2cccc(C3CC3)c2)CCCN(c2cc(F)c(S(=O)(=O)Nc3ccncn3)c(F)c2)C1` (single isomer, unassigned) [Example 89, formate], the IC50 was determined as 567 nM.

Turning to `CN(C)[C@@]1(CCc2cccc(Cl)c2)CCCN(c2cc(F)c(S(=O)(=O)Nc3ccncn3)c(F)c2)C1` (single isomer, unassigned) [Example 90, formate], the IC50 was 4460 nM.

`CN(C)[C@]1(CCc2cccc(Cl)c2)CCCN(c2cc(F)c(S(=O)(=O)Nc3ccncn3)c(F)c2)C1` (single isomer, unassigned) [Example 91, formate]: the IC50 was 11.6 nM.

As to `CN[C@]1(CCc2cccc(C(F)(F)F)c2)CCCN(c2ccc(S(=O)(=O)Nc3ccncn3)c(F)c2)C1` [Example 3, (R)-2-Fluoro-4-(3-(methylamino)-3-(3-(trifluoromethyl)-phenethyl)piperidin-1-yl)-N-(pyrimidin-4-yl)benzenesulfonamide], the IC50 is 21.5 nM.

Take `Cc1cc(N2CCC[C@](CCc3cccc(C(F)(F)F)c3)(N(C)C)C2)cc(F)c1S(=O)(=O)Nc1ccncn1` [Example 9, (S)-4-(3-(Dimethylamino)-3-(3-(trifluoromethyl)phenethyl)-piperidin-1-yl)-2-fluoro-6-methyl-N-(pyrimidin-4-yl)benzenesulfonamide]: the IC50 was found to be 597 nM.

Consider `Cc1cc(N2CCC[C@@](CCc3cccc(C(F)(F)F)c3)(N(C)C)C2)cc(F)c1S(=O)(=O)Nc1ccncn1` [Example 10, (R)-4-(3-(Dimethylamino)-3-(3-(trifluoromethyl)-phenethyl)piperidin-1-yl)-2-fluoro-6-methyl-N-(pyrimidin-4-yl)benzenesulfonamide], for which the IC50 was 2.66 nM.

As for `CN1CCC(CN(C)C2(CCc3cccc(C(F)(F)F)c3)CCCN(c3ccc(S(=O)(=O)Nc4ccncn4)c(F)c3)C2)C1` (centres unmarked) [Example 31, 2-Fluoro-4-(3-(methyl((1-methylpyrrolidin-3-yl)methyl)amino)-3-(3-(trifluoromethyl)phenethyl)piperidin-1-yl)-N-(pyrimidin-4-yl)benzenesulfonamide formate], the IC50 is 8.59 nM.

With `CN1CC(N(C)[C@]2(CCc3cccc(C(F)(F)F)c3)CCCN(c3ccc(S(=O)(=O)Nc4ccncn4)c(F)c3)C2)C1` [Example 35, (R)-2-Fluoro-4-(3-(methyl(1-methylazetidin-3-yl)amino)-3-(3-(trifluoromethyl)phenethyl)piperidin-1-yl)-N-(pyrimidin-4-yl)benzenesulfonamide], the IC50 was found to be 40.7 nM.

Consider `CN(C)[C@@]1(CCc2cccc(C(F)(F)F)c2Cl)CCCN(c2cc(F)c(S(=O)(=O)Nc3ccncn3)c(F)c2)C1` [Example 40, (S)-4-(3-(2-Chloro-3-(trifluoromethyl)phenethyl)-3-(dimethylamino)piperidin-1-yl)-2,6-difluoro-N-(pyrimidin-4-yl)benzenesulfonamide], for which the IC50 is 531 nM.

As for `CN(C)[C@]1(CCc2cc(Cl)cc(C(F)(F)F)c2)CCCN(c2cc(F)c(S(=O)(=O)Nc3ccncn3)c(F)c2)C1` [Example 43, (R)-4-(3-(3-Chloro-5-(trifluoromethyl)phenethyl)-3-(dimethylamino)piperidin-1-yl)-2,6-difluoro-N-(pyrimidin-4-yl)benzenesulfonamide], the IC50 amounted to 0.443 nM.

Regarding `CN(C)[C@@]1(C[C@@H]2CCc3ccc(C(F)(F)F)cc32)CCCN(c2cc(F)c(S(=O)(=O)Nc3ccncn3)c(F)c2)C1` [Example 46, 4-((R)-3-(Dimethylamino)-3-(((S)-6-(trifluoromethyl)-2,3-dihydro-1H-inden-1-yl)methyl)piperidin-1-yl)-2,6-difluoro-N-(pyrimidin-4-yl)benzenesulfonamide formate], the IC50 was 1320 nM.

In the case of `CN(C)[C@@]1(C[C@H]2CCc3ccc(C(F)(F)F)cc32)CCCN(c2cc(F)c(S(=O)(=O)Nc3ccncn3)c(F)c2)C1` [Example 47, 4-((R)-3-(Dimethylamino)-3-(((R)-6-(trifluoromethyl)-2,3-dihydro-1H-inden-1-yl)methyl)piperidin-1-yl)-2,6-difluoro-N-(pyrimidin-4-yl)benzenesulfonamide formate], the IC50 was 307 nM.

Turning to `CN(C)[C@]1(C[C@H]2CCc3ccc(C(F)(F)F)cc32)CCCN(c2cc(F)c(S(=O)(=O)Nc3ccncn3)c(F)c2)C1` [Example 48, 4-((S)-3-(Dimethylamino)-3-(((R)-6-(trifluoromethyl)-2,3-dihydro-1H-inden-1-yl)methyl)piperidin-1-yl)-2,6-difluoro-N-(pyrimidin-4-yl)benzenesulfonamide formate], the IC50 turned out to be 1.55 nM.

For `CN(C)[C@]1(C[C@@H]2CCc3ccc(C(F)(F)F)cc32)CCCN(c2cc(F)c(S(=O)(=O)Nc3ccncn3)c(F)c2)C1` [Example 49, 4-((S)-3-(Dimethylamino)-3-(((S)-6-(trifluoromethyl)-2,3-dihydro-1H-inden-1-yl)methyl)piperidin-1-yl)-2,6-difluoro-N-(pyrimidin-4-yl)benzenesulfonamide formate], the IC50 is 11.1 nM.

Consider `CN(C)[C@@]1(CCC2CCCCC2)CCCN(c2cc(F)c(S(=O)(=O)Nc3ccncn3)c(F)c2)C1` [Example 92, (S)-4-(3-(2-Cyclohexylethyl)-3-(dimethylamino)piperidin-1-yl)-2,6-difluoro-N-(pyrimidin-4-yl)benzenesulfonamide formate], for which the IC50 turned out to be 3.82 nM.

Consider `CN(C)[C@]1(CCC2CCCCC2)CCCN(c2cc(F)c(S(=O)(=O)Nc3ccncn3)c(F)c2)C1` [Example 93, (R)-4-(3-(2-Cyclohexylethyl)-3-(dimethylamino)piperidin-1-yl)-2,6-difluoro-N-(pyrimidin-4-yl)benzenesulfonamide formate], for which the IC50 is 245 nM.

As to `CN(C)[C@@]1(C2CC(c3cccc(C(F)(F)F)c3)C2)CCCN(c2cc(F)c(S(=O)(=O)Nc3ccncn3)c(F)c2)C1` (stereo partly drawn) [Example 94, 4-((R)-3-(Dimethylamino)-3-((1r,3R)-3-(3-(trifluoromethyl)phenyl)-cyclobutyl)piperidin-1-yl)-2,6-difluoro-N-(pyrimidin-4-yl)benzenesulfonamide], the IC50 is 127 nM.

In the case of `CN(C)C1(C2CC(c3cccc(C(F)(F)F)c3)C2)CCCN(c2cc(F)c(S(=O)(=O)Nc3ccncn3)c(F)c2)C1` (centres unmarked) [Example 95, 4-(3-(Dimethylamino)-3-(3-(3-(trifluoromethyl)phenyl)-cyclobutyl)piperidin-1-yl)-2,6-difluoro-N-(pyrimidin-4-yl)benzenesulfonamide], the IC50 amounted to 14.1 nM.

For `CN(C)[C@]1(C2CC(c3cccc(C(F)(F)F)c3)C2)CCCN(c2cc(F)c(S(=O)(=O)Nc3ccncn3)c(F)c2)C1` (stereo partly drawn) [Example 96, 4-((S)-3-(Dimethylamino)-3-((1s,3R)-3-(3-(trifluoromethyl)-phenyl)cyclobutyl)piperidin-1-yl)-2,6-difluoro-N-(pyrimidin-4-yl)benzenesulfonamide], the IC50 was 1.81 nM.

Regarding `CN(C)[C@@]1(CCc2cccc(C(F)(F)F)n2)CCCN(c2cc(F)c(S(=O)(=O)Nc3ccncn3)c(F)c2)C1` [Example 97, (R)-4-(3-(Dimethylamino)-3-(2-(6-(trifluoromethyl)pyridin-2-yl)ethyl)-piperidin-1-yl)-2,6-difluoro-N-(pyrimidin-4-yl)benzenesulfonamide formate], the IC50 worked out at 10000 nM.
